Assay results from patent publication EP4596561A1, “PHOSPHORUS-CONTAINING COMPOUND, PHARMACEUTICAL COMPOSITION AND USE THEREOF” (Suzhou Genhouse Bio Co., Ltd., priority 2022, dated 2024).
Read-outs that look alike come from different tables or passages of the source.

Key:
[1] = Pharmacokinetic test in mice (low dose); assay type: in vivo, Balb/c mice; details: mouse, plasma, mice; for AUC(0-t): read-out: AUClast; for half-life: read-out: T1/2 (converted)
Procedure: The compounds of the present disclosure were administered to Balb/c mice by single intravenous injection and oral gavage, and the plasma of the mice at each time point was collected. The concentration of the compounds to be tested in BALB/C plasma was detected using the LC-MS/MS analysis method, and pharmacokinetic analysis was performed.
The mixture was vortexed, shaken, and ultrasonicated. The remaining volume of 25% sulfobutylether-β-cyclodextrin (sterilized) was added to prepare the final concentration solution or suspension.
Intravenous injection formulations will be directly administered in animal experiments without filtration. The IV drug preparation vials were disinfected in an infrared sterilization cabinet one day in advance.
Intravenous injection: Administration was performed via the tail vein. After the needle was inserted, the syringe was slowly […].
Gavage: Gavage needle and syringe of an appropriate type were selected. The gavage needle was inserted from the root of the tongue into the esophagus until it reached near the cardia of the stomach, then the drug formulation was injected, and the gavage needle was withdrawn. When disposable plastic gavage needles were used, one needle was used for each group.
At each time point, 60 µL of whole blood was collected from the submandibular vein or tail vein (except for the IV group). The blood sample was added to a pre-cooled anticoagulant blood collection tube containing anticoagulant EDTA-K2 (1 µL, 15% EDTA-K2 solution), placed on wet ice, and centrifuged (3000 g, 4 °C, 10 min) within 1 h. The plasma was immediately collected after centrifugation, transferred to an EP tube, and stored at -90 °C to -60 °C.
Plasma concentration detection: A developed LC-MS/MS method was used to detect the compounds in plasma.
The plasma concentration-time data were analyzed using a non-compartmental model in the Phoenix® WinNonlin® (Version 8.2, Pharsight, Mountain View, CA).

[2] = test system: MSTO-211H (NF2 wide-type); assay: Inhibition of cell proliferation (CellTiter-Lumi); assay type: cell-based; details: Homo sapiens, 72 h + another 72 h treatment
Procedure: (§1) NCI-H2052 (NF2 mutant), NCI-H226 (NF2 mutant), NCI-H2452 (NF2 wide-type), NCI-H28 (NF2 wide-type), and MSTO-211H (NF2 wide-type) cells were cultured in RPMI 1640 complete media.
(§2) The normally growing cells described above were digested with a trypsin cell-digesting solution, centrifuged, counted, and then plated in a 96-well plate at a density of 1000 cells per well. Administration was performed 24 h after the cell plating. Inhibitors at different concentration gradients were added at 10 µL per well, and three replicate wells were set for each concentration point. The starting concentration was 20 µM and diluted 8 times with a 4-fold gradient. A corresponding negative control group treated with 0.1% DMSO was also set up. After 72 h of drug treatment, the cell culture plate to be tested was taken out of the incubator. The culture medium in the 96-well plate was pipetted, and 190 µL of fresh RPMI 1640 complete medium was added. Another administration was performed, and the cells were cultured for another 72 h. The 96-well plate was taken out and allowed to equilibrate at room temperature for 10 min. The medium in the 96-well plate was pipetted, and 200 µL of CellTiter-Lumi™ luminescent cell viability detection solution (mixed with a medium in a ratio of 1:1) was added. After shaking for two minutes, the mixture was reacted at room temperature for 10 min. Then, 150 µL of liquid was pipetted from the transparent 96-well plate and transferred to a white 96-well plate for chemiluminescence reading. The background value was subtracted from the value for each well to calculate the cell survival rate. Survival rate (%) = […]. Sample is the chemiluminescence of the drug-treated group, and Vehicle is the […] of the DMSO control group. A sigmoidal dose-survival rate curve was plotted using a non-linear regression model in the GraphPad Prism 7.0 software, and the IC50 values or GI50 values were calculated.

[3] = test system: YAP-TEAD transcription complex; assay: YAP-TEAD reporter gene assay (dual luciferase, stably transfected 293T cells); assay type: cell-based; details: Homo sapiens, HEK-293T; 293T reporter cells, 24 h of drug treatment; read-out: IC50
Procedure: YAP-TEAD reporter gene The YAP-TEAD reporter gene assay was performed as follows. Firstly, the 8xGTIIC promoter sequence ([…] GTACTGTTGGTAAA) was constructed into a pGL4.20(luc2-Puro) plasmid, and the TK promoter ([…]) unrelated to the hippo pathway was constructed into a pGL4.78(hRlucCP/Hygro) plasmid, thereby constructing stably transfected 293T cells that can stably and continuously express the transcriptional activity of the YAP-TEAD transcription complex. After selection and identification of individual clones, the clones were grown and maintained in a DMEM medium containing 10% fetal bovine serum, penicillin-streptomycin solution, 1 µg/mL puromycin, and 150 µg/mL hygromycin. To perform reporter gene assays with the compounds to be tested, the well-growing cells described above were plated in a 384-well plate at a cell density of 3000 cells per well, with 90 µL per well. The periphery was sealed with an appropriate amount of PBS to prevent evaporation of water from the peripheral wells. Administration was performed on the next day after the cell plating. The test compounds were added at different concentration gradients, and three replicate wells were set for each concentration point. The compound concentration started at 5 µM and was diluted seven times with a 5-fold gradient. A corresponding negative control group treated with DMSO was also set up. After 24 h of drug treatment, the detection reagents were prepared first. The Dual-Lumi™ Firefly luciferase detection reagent and Dual-Lumi™ Renilla luciferase detection buffer were dissolved and brought to room temperature. […]. According to the amount of 100 µL of Dual-Lumi™ Renilla luciferase detection working solution required for the detection of each sample, an appropriate amount of Dual-Lumi™ Renilla luciferase detection working solution was prepared. […]. The cell culture plate was taken out and allowed to equilibrate at room temperature for 10 min (usually no more than 30 min). Then, 100 µL of Dual-Lumi™ Firefly luciferase detection reagent was added to each well of a 96-well plate (25 µL per well for the 384-well plate), and the mixture was mixed well. The mixture was then incubated at room temperature (about 25 °C) for 10 min to stabilize the luminescent signal, and then chemiluminescence was detected using a multimode microplate reader with a chemiluminescence detection function. Subsequently, the detection of Renilla luciferase began. Firstly, 100 µL of Dual-Lumi™ Renilla luciferase detection working solution was added to each well of a […] (25 µL per well for the 384-well plate), and the mixture was mixed well. The mixture was then incubated at room temperature (about 25 °C) for 10 min to stabilize the luminescent signal. Finally, chemiluminescence was detected using a multimode microplate reader with a chemiluminescence detection function. The obtained data were analyzed using GraphPad Prism 7.0 software. A sigmoidal dose-survival rate curve was plotted using a non-linear regression model, and the IC50 values were calculated.

NCI-H28 (NF2 wide-type) = assay: Inhibition of cell proliferation (CellTiter-Lumi); assay type: cell-based; details: Homo sapiens, 72 h + another 72 h treatment
Procedure: as §1
as §2, with “The medium in the 96-well plate was pipetted, and 200 µL of CellTiter-Lumi™ luminescent cell viability detection solution (mixed with a medium in a ratio of 1:1) was added.” left out

[4] = test system: NCI-H2452 (NF2 wide-type); assay: Inhibition of cell proliferation (CellTiter-Lumi); assay type: cell-based; details: Homo sapiens, 72 h + another 72 h treatment
Procedure: as §1
as §2, with “The medium in the 96-well plate was pipetted, and 200 µL of CellTiter-Lumi™ luminescent cell viability detection solution (mixed with a medium in a ratio of 1:1) was added.” left out

`CP(C)(=O)c1ccc2c(c1)c1ncccc1n2-c1ccc(C(F)(F)F)cc1` [Example 4] showed an MRT ([1]; IV 2 mg/kg) of 6.4 h, an AUC(0-t) ([1]; IV 2 mg/kg) of 9.23 µM·h and a clearance ([1]; IV 2 mg/kg, read-out: Cl (converted)) of 8.33 mL/min/kg. It also gave a half-life ([1]; IV 2 mg/kg) of 6.3 h, an MRT ([1]; PO 10 mg/kg) of 5.3 h and a bioavailability ([1]; PO 10 mg/kg vs IV 2 mg/kg, read-out: F%) of 163%. For the same compound, the AUC(0-t) ([1]; PO 10 mg/kg) was 79 µM·h, the Cmax ([1]; PO 10 mg/kg, read-out: Cmax) was 9.36 µM and the half-life ([1]; PO 10 mg/kg) was 3.3 h. For the same compound, the IC50 [2] was > 1.25 µM, the IC50 [3] was 0.123 µM and the IC50 (NCI-H28 (NF2 wide-type)) was > 1.25 µM. The IC50 [4] was > 5 µM.
